We go through 3 compounds from publication PMC4478171, “Synthesis, characterization, and preclinical validation of a PET radiopharmaceutical for interrogating Aβ (β-amyloid) plaques in Alzheimer’s disease” (EJNMMI Research, 2015).

Data set [1] concerns the target cortical Aβ plaques in AD frontal cortex sections (Homo sapiens, UniProt P05067). Kind of data set: Autoradiography on AD frontal cortex sections with IHC correlation. Format: binding. The note with it: 7A […] with 18F-7B 10 nM. On the procedure: Frozen AD frontal cortex sections (12 μm) were obtained using a TBS Minotome PLUS Cryostat. The tissue sections were thaw-mounted onto Superfrost Plus (Fisherbrand 12-550-15 (Fisherbrand, Leicestershire, UK)) microscope slides, allowed to air dry for 10 to 15 min, and stored at −80°C. For autoradiography, brain sections were brought to room temperature for 5 min and then pre-incubated in assay buffer (30 mM Tris-HCl, pH 7.4 + 0.1% BSA) for 10 min at RT. Sections were incubated with ^18F-7B (300 μL/slide; 10 nM) in the assay buffer for 60 min at room temperature. For determining nonspecific binding, adjacent sections were incubated in the additional presence of 2.5 μM cold ligand 7A. Sections were then washed at RT for 1 min in 30 mM Tris-HCl pH 7.4, 2 min in 70% ethanol/30 mM Tris-HCl, 1 min in 30% ethanol/30 mM Tris-HCl, and 1 min in 30 mM Tris-HCl (washing protocol using literature precedents. Sections were then dried and exposed to phosphor-imaging screen (BAS-MS 2025) for 30 min. Autoradiography images were obtained on a Fuji Bio-Imaging System FLA-7000 (Tokyo, Japan) and analyzed using MultiGauge software (Fuji, Tokyo, Japan). Following exposure to a phosphor-imaging screen, the sections were then blocked for 60 min at room temperature with 3% milk-0.25% Tween 20-PBS buffer. […]

The subject of data set [2] is Aβ plaques. Details: method as in PMID 25003699. The note with it: transgenic mice; cited from earlier work.
Data set [3] has as its system Aβ plaques in autopsy-confirmed AD human tissues. Also noted: method as in PMID 25003699. The note with it: cited from earlier work.
In data set [4] the target is AD homogenates (Homo sapiens, UniProt P05067). The note with it: cited from earlier work.
Chain of AD homogenates (P05067 672-711 limits assumed): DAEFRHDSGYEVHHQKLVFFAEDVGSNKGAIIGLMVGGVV
For data set [5] the following is noted: normal mice, cited from earlier work.
For data set [6] the following is noted: comparison values, no reference given; cited from earlier work.

Broadly, the Kd is the concentration at which binding is half-saturated. The log P is the decadic logarithm of the partition coefficient of the neutral form, usually between octanol and water.

The structures appear in SMILES notation. Entries after “also recorded” stand apart in the source; their conditions may differ. Like-named read-outs stand apart in the source and are kept apart here.

Chain of cortical Aβ plaques in AD frontal cortex sections (P05067 672-711 limits assumed): as above

On to `CN(C)c1ccc(/C=C/c2nc3ccc(OCCF)cc3s2)cn1` [7A, (E)-5-(2-(6-(2-fluoroethoxy)benzo[d]thiazol-2-yl)vinyl)-N,N-dimethylpyridin-2-amine], for which, in data set [1], the “inhibition of 18F-7B binding in autoradiography” value is reported as “binding was inhibited”. In addition, in data set [2], the “BBB penetration and plaque labeling by multiphoton imaging” value is “could traverse the BBB to label parenchymal plaques in the brain of transgenic mice”. In data set [3], the plaque types labeled entry was “labels diffuse plaques in autopsy-confirmed AD human tissues; also recorded: binding to both diffuse and fibrillary plaques”.

Consider `CNc1ccc(/C=C/c2ccc(OCCOCCOCCF)cc2)cc1` [Florbetaben], for which, in data set [4], the BP was 152, the Bmax is 2,431 nM and the Kd was 16 nM.

Turning to `CNc1ccc(/C=C/c2ccc(OCCOCCOCCF)nc2)cc1` [Florbetapir, (E)-4-(2-(6-(2-(2-(2-^18F-fluoroethoxy)ethoxy)-ethoxy)pyridin-3-yl)vinyl)-N-methyl benzenamine], the Brain uptake is reported as 7.33 ± 1.54 %ID/g in data set [5] (2 min) and 1.80 ± 0.07 %ID/g in data set [5] (2 h). The “brain uptake ratio 2 min/2 h” value in data set [5] is listed as 4.07. Besides, the “log P” value in data set [6] is on record as 2.4.
